This data set deals with human stem-cell derived cardiomyocytes. As to the kind of experiment: Promega ATP assay (CellTiter-Glo luminescent cell viability) on cardiomyocytes. In kind it is cell-based.

Source text: Cells were dissociated at day 21 using 10× TrypLE select and replated at 20.000 cells/well in white 96-well plates (Corning 655098) and treated according to the protocol shown in FIG. 1. Alternatively, Pluricyte Cardiomyocytes were obtained from Pluriomics (Leiden, The Netherlands). The cryopreserved cells were recovered in maintained in Pluricyte Medium (Pluriomics, Leiden, The Netherlands) and thereafter cultivated on medium without glucose and/or galactose but comprising fatty acids and carnitine as described below. […]
After two days, an ATP viability assay was performed. ATP values were measured using the Promega Cell titer Glo luminescent cell viability kit according to manufacturers instructions. […] Available ATP is measured via an ATP dependent conversion of Luciferin by a recombinant Luciferase, which produces oxyluciferin and light. The amount of luminescence generated is therefore directly proportional to the amount of ATP in the cells.

Regarding `COc1cccc2c1C(=O)c1c(O)c3c(c(O)c1C2=O)C[C@@](O)(C(=O)CO)C[C@@H]3O[C@H]1C[C@H](N)[C@H](O)[C@H](C)O1` [doxorubicin], the “effect on ATP levels” value (cardiomyocytes cultivated in the presence of glucose, various concentrations of doxorubicin, n=6 (FIG. 2)) is “shows a clear effect on ATP levels”. For the same compound, where the note is “cells grown in CM (with glucose) compared with CM− (without glucose and galactose, with fatty acids and carnitine) (FIG. 3, lower panel)”, the “mitochondrial toxicity (ATP levels), CM versus CM− medium” value was “more pronounced in cells cultured in CM−”.

The values above are taken from patent publication US10613078B2, “Assays for measuring cardiotoxicity” (NCARDIA B.V., priority 2015, dated 2020).
